In brackets after ≈: the same amount, converted by molar mass.
Tests used:
[1] = Aqueous solubility of the compound at pH 6.8; format: physicochemical; conditions: aqueous medium
[2] = Intrinsic clearance in human liver microsomes at 0.2 uM; format: ADME, Microsome
[3] = Intrinsic clearance in mouse liver microsomes at 0.2 uM; format: ADME, Microsome
[4] = Tmax in Sprague-Dawley rat at 3 mg/kg, po; format: ADME, organism-based; parameters: dose 3 mg/kg, route oral; conditions: in vivo
[5] = AUC (0 to 24 hrs) in Sprague-Dawley rat at 0.3 mg/kg, iv; format: ADME, organism-based; parameters: time < 24 hr, dose 0.3 mg/kg, route intravenous; conditions: plasma
[6] = Volume of distribution at steady state in Sprague-Dawley rat at 0.3 mg/kg, iv; format: ADME, organism-based; parameters: dose 0.3 mg/kg, route intravenous; conditions: in vivo, read-out: Vdss
[7] = Oral availability in Sprague-Dawley rat at 3 mg/kg; format: ADME, organism-based; parameters: dose 3 mg/kg; conditions: in vivo
[8] = Total clearance in Sprague-Dawley rat at 0.3 mg/kg, iv; format: ADME, organism-based; parameters: dose 0.3 mg/kg, route intravenous; conditions: in vivo
[9] = Cmax in Sprague-Dawley rat at 3 mg/kg, po; format: ADME, organism-based; parameters: dose 3 mg/kg, route oral; conditions: in vivo
[10] = Half life in Sprague-Dawley rat at 0.3 mg/kg, iv; format: ADME, organism-based; parameters: dose 0.3 mg/kg, route intravenous; conditions: in vivo
[11] = AUC (0 to 24 hrs) in Sprague-Dawley rat at 3 mg/kg, po; format: ADME, organism-based; parameters: time < 24 hr, dose 3 mg/kg, route oral; conditions: plasma
[12] = Tmax in Sprague-Dawley rat at 1 mg/kg, po; format: ADME, organism-based; parameters: dose 1 mg/kg, route oral; conditions: in vivo
[13] = Oral availability in Sprague-Dawley rat at 1 mg/kg; format: ADME, organism-based; parameters: dose 1 mg/kg; conditions: in vivo
[14] = AUC (0 to 24 hrs) in Sprague-Dawley rat at 1 mg/kg, po; format: ADME, organism-based; parameters: time < 24 hr, dose 1 mg/kg, route oral; conditions: plasma
[15] = Cmax in Sprague-Dawley rat at 1 mg/kg, po; format: ADME, organism-based; parameters: dose 1 mg/kg, route oral; conditions: in vivo

| Compound | solubility [1] [µM] | CLint scaled at 0.2 µM [2] [L/h/kg] | CLint scaled at 0.2 µM [3] [L/h/kg] | further results |
| --- | --- | --- | --- | --- |
| CCCCCCCCCc1[nH]c2ccccc2c(=O)c1C | < 1 | > 60 | > 60 | – |
| COCCOCCCCc1[nH]c2ccccc2c(=O)c1C | ≥ 100 | 2.7 | > 60 | – |
| Cc1c(COCCCCOCC2(C)COC2)[nH]c2ccccc2c1=O | ≥ 100 | 3.18 | 17.7 | – |
| Cc1c(COCCCCO)nc2ccccc2c1O | ≥ 100 | – | – | – |
| CCCCOc1cccc(OCc2[nH]c3ccccc3c(=O)c2C)c1 | < 1 | > 60 | > 60 | – |
| Cc1c(COc2cccc(OCCCC(F)(F)F)c2)nc2ccccc2c1O | < 1 | 15.4 | > 60 | – |
| COC(C)(C)CCOc1cccc(OCc2[nH]c3ccccc3c(=O)c2C)c1 | 2 (≈ 0.763 µg/mL) | > 60 | > 60 | – |
| O=c1cc(COc2cccc(OCC3CCOCC3)c2)[nH]c2ccccc12 | 4 (≈ 1.46 µg/mL) | 4.68 | 11.8 | – |
| CC(C)c1c(COc2cccc(OCC3CCOCC3)c2)[nH]c2ccccc2c1=O | 3 (≈ 1.22 µg/mL) | – | – | – |
| COc1ccc2[nH]c(COc3cccc(OCC4CCOCC4)c3)c(C)c(=O)c2c1 | < 1 | – | – | – |
| Cc1c(COc2cccc(OCC3CCOCC3)c2)[nH]c2ccc(Cl)cc2c1=O | < 1 | > 60 | > 60 | – |
| Cc1c(COc2cccc(OCC3CCOCC3)c2)[nH]c2ccc(C(=O)O)cc2c1=O | ≥ 100 | < 1.2 | < 3 | – |
| Cc1c(COc2cncc(OCCC(C)(C)O)c2)[nH]c2ccccc2c1=O | ≥ 100 | 3.96 | 13.5 | – |

Further lines, with some results ahead:

| solubility [1] [µM] | CLint scaled at 0.2 µM [2] [L/h/kg] | CLint scaled at 0.2 µM [3] [L/h/kg] | Compound | further results |
| --- | --- | --- | --- | --- |
| < 1 | > 60 | > 60 | CCCCCC/C=C/Cc1[nH]c2ccccc2c(=O)c1C | – |
| 5 (≈ 1.9 µg/mL) | 12.8 | 25.2 | Cc1c(COc2cccc(OCC3CCOCC3)c2)[nH]c2ccccc2c1=O | Tmax [4]: 0.22 h; AUC(0-t) at 24 h [5]: 0.196 µg·h/mL; Vd [6]: 2.3 L/kg; bioavailability [7]: 27%; clearance [8]: 1.56 L/h/kg; Cmax [9]: 0.196 µg/mL; half-life [10]: 1.8 h; AUC(0-t) at 24 h [11]: 0.526 µg·h/mL |
| 2 (≈ 0.8 µg/mL) | 27.6 | > 60 | O=c1c(Cl)c(COc2cccc(OCC3CCOCC3)c2)[nH]c2ccccc12 | – |
| < 1 | – | – | Cc1ccc2[nH]c(COc3cccc(OCC4CCOCC4)c3)c(C)c(=O)c2c1 | – |
| 2 (≈ 0.795 µg/mL) | 28.4 | > 60 | Cc1c(COc2cccc(OCC3CCOCC3)c2)[nH]c2ccc(F)cc2c1=O | – |
| < 1 | – | – | Cc1c(COc2cccc(OCC3CCOCC3)c2)[nH]c2ccc(Br)cc2c1=O | – |
| < 1 | 45.4 | > 60 | Cc1c(COc2cccc(OCC3CCOCC3)c2)[nH]c2ccc(-c3cccnc3)cc2c1=O | – |
| 22 (≈ 8.37 µg/mL) | 5.7 | 12.2 | Cc1c(COc2ccnc(OCC3CCOCC3)c2)[nH]c2ccccc2c1=O | – |
| 36 (≈ 13.7 µg/mL) | 6.78 | 18.7 | Cc1c(COc2cc(OCC3CCOCC3)ccn2)[nH]c2ccccc2c1=O | – |
| 85 (≈ 31.3 µg/mL) | 2.28 | 6.72 | Cc1c(COc2cc(OCCC(C)(C)O)ccn2)[nH]c2ccccc2c1=O | Tmax [12]: 4 h; AUC(0-t) at 24 h [5]: 0.897 µg·h/mL; Vd [6]: 1.4 L/kg; bioavailability [13]: 78%; clearance [8]: 0.36 L/h/kg; AUC(0-t) at 24 h [14]: 2.24 µg·h/mL; Cmax [15]: 0.202 µg/mL; half-life [10]: 4.1 h |
| ≥ 100 | 7.98 | 14.3 | Cc1c(COc2cncc(OCC3CCOCC3)c2)[nH]c2ccccc2c1=O | – |
| 3 (≈ 1.14 µg/mL) | 46.2 | 59 | Cc1c(COc2cccc(OCC3CCOCC3)n2)[nH]c2ccccc2c1=O | – |
